PMC5053573, “Structure-Based Design of Tetrahydroisoquinoline-7-carboxamides as Selective Discoidin Domain Receptor 1 (DDR1) Inhibitors” (Journal of Medicinal Chemistry, 2016)

How the values were obtained:
Experiment in all cases: biochemical
Conditions in all cases: read-out: %Ctrl @ 1000nM
[1] = target: ABL1(M351T)-phosphorylated (Homo sapiens, UniProt P00519, M351T)
RIPK4 = RIPK4 (Homo sapiens, UniProt P57078)
FLT3(ITD,F691L) = FLT3(ITD,F691L) (Homo sapiens, UniProt P36888, F691L/ITD)
PIM3 = PIM3 (Homo sapiens, UniProt Q86V86)
TAK1 = target: T1, TAK1 (Homo sapiens, UniProt O43318)
T1 construct: gene MAP3K7

PIK3CA(E542K) = PIK3CA(E542K) (Homo sapiens, UniProt P42336, E542K)
MRCKA = target: T2, MRCKA (Homo sapiens, UniProt Q5VT25)
T2 construct: gene CDC42BPA

ERN1 = ERN1 (Homo sapiens, UniProt O75460)
EPHB4 = EPHB4 (Homo sapiens, UniProt P54760)
CDC2L2 = target: T3, CDC2L2 (Homo sapiens, UniProt Q9UQ88)
T3 construct: gene CDK11A

PIP5K1A = PIP5K1A (Homo sapiens, UniProt Q99755)
RIOK2 = RIOK2 (Homo sapiens, UniProt Q9BVS4)
RET(V804L) = RET(V804L) (Homo sapiens, UniProt P07949, V804L)
TNNI3K = TNNI3K (Homo sapiens, UniProt Q59H18)
EPHB2 = EPHB2 (Homo sapiens, UniProt P29323)
DMPK = DMPK (Homo sapiens, UniProt Q09013)
TNIK = TNIK (Homo sapiens, UniProt Q9UKE5)
MET(M1250T) = MET(M1250T) (Homo sapiens, UniProt P08581, M1250T)
PCTK1 = target: T4, PCTK1 (Homo sapiens, UniProt Q00536)
T4 construct: gene CDK16

LYN = LYN (Homo sapiens, UniProt P07948)
AMPK-alpha1 = target: T5, AMPK-alpha1 (Homo sapiens, UniProt Q13131)
T5 construct: gene PRKAA1

CDK2 = CDK2 (Homo sapiens, UniProt P24941)
CLK3 = CLK3 (Homo sapiens, UniProt P49761)
FGFR1 = FGFR1 (Homo sapiens, UniProt P11362)
TEC = TEC (Homo sapiens, UniProt P42680)
QSK = target: T6, QSK (Homo sapiens, UniProt Q9Y2K2)
T6 construct: gene SIK3

MET = MET (Homo sapiens, UniProt P08581)
SRMS = SRMS (Homo sapiens, UniProt Q9H3Y6)
PIP5K2B = target: T7, PIP5K2B (Homo sapiens, UniProt P78356)
T7 construct: gene PIP4K2B

[2] = target: ABL1(E255K)-phosphorylated (Homo sapiens, UniProt P00519, E255K)
FLT3(D835Y) = FLT3(D835Y) (Homo sapiens, UniProt P36888, D835Y)
MAP3K2 = MAP3K2 (Homo sapiens, UniProt Q9Y2U5)
ACVR2A = ACVR2A (Homo sapiens, UniProt P27037)
MEK1 = target: T8, MEK1 (Homo sapiens, UniProt Q02750)
T8 construct: gene MAP2K1

NEK4 = NEK4 (Homo sapiens, UniProt P51957)

Sequence of PIK3CA(E542K) (P42336 whole entry E542K): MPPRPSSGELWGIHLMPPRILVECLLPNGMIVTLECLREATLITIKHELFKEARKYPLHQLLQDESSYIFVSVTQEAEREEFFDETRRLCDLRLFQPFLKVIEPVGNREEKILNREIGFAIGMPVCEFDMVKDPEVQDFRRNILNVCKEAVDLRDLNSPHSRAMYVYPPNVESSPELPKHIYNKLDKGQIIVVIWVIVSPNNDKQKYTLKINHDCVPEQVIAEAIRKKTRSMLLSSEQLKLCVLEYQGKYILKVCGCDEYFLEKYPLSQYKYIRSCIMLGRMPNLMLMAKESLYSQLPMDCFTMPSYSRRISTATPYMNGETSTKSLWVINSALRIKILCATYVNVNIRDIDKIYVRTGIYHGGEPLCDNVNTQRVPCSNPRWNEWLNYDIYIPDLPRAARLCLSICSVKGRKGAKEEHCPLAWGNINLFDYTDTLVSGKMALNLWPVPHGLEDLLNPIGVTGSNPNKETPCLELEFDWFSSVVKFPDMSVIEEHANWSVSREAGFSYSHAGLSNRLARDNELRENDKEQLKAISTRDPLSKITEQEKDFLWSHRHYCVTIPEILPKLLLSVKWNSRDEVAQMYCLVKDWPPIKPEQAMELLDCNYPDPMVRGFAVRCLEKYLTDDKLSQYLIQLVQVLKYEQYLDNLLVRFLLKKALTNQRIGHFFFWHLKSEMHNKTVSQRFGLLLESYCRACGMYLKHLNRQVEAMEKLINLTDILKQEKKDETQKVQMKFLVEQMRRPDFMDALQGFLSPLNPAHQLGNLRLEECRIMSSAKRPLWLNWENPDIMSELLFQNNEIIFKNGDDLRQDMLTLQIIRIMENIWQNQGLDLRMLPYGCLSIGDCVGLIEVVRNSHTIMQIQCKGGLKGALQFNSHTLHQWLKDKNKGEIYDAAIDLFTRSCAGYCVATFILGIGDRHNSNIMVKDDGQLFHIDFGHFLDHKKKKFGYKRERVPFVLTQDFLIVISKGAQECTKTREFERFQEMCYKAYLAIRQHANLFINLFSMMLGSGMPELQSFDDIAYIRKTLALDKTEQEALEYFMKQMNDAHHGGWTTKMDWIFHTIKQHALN
Sequence of MAP3K2 (Q9Y2U5 whole entry): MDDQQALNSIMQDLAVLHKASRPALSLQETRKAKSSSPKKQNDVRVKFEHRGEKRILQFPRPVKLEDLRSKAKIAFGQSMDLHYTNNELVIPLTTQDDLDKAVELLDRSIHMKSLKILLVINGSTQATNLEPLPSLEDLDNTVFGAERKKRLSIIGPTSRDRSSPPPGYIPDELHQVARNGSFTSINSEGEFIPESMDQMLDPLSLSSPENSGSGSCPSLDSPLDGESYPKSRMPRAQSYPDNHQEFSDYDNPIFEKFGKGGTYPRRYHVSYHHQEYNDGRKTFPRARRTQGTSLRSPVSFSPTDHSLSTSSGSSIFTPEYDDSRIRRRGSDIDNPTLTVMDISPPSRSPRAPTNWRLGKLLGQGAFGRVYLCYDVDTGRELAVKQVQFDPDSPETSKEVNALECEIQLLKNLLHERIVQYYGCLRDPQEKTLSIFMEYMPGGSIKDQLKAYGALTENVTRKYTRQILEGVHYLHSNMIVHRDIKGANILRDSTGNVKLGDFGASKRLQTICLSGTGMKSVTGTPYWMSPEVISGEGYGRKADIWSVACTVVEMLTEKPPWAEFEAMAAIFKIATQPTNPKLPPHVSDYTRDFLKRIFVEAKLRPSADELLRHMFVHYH
Sequence of RIPK4 (P57078 whole entry): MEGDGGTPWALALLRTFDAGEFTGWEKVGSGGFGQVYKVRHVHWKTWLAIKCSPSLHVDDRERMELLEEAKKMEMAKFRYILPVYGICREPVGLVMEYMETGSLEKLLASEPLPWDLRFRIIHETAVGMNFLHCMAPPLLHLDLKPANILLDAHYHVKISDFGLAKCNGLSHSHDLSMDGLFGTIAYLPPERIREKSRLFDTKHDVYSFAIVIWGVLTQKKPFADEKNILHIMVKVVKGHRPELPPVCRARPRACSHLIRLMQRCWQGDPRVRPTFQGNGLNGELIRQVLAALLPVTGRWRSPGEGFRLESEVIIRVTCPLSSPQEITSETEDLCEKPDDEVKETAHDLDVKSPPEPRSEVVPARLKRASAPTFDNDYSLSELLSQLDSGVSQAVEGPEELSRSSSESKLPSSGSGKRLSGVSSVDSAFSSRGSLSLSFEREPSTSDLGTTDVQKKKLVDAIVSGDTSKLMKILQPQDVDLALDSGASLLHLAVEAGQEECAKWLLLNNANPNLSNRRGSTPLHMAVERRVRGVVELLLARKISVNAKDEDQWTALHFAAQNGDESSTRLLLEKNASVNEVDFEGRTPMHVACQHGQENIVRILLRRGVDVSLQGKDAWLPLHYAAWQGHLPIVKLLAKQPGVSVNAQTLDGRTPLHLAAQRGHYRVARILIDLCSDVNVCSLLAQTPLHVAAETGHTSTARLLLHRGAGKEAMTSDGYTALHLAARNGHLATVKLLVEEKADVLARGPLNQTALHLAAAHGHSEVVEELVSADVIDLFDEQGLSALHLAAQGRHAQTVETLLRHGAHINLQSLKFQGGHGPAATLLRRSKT
T2 sequence (Q5VT25 whole entry): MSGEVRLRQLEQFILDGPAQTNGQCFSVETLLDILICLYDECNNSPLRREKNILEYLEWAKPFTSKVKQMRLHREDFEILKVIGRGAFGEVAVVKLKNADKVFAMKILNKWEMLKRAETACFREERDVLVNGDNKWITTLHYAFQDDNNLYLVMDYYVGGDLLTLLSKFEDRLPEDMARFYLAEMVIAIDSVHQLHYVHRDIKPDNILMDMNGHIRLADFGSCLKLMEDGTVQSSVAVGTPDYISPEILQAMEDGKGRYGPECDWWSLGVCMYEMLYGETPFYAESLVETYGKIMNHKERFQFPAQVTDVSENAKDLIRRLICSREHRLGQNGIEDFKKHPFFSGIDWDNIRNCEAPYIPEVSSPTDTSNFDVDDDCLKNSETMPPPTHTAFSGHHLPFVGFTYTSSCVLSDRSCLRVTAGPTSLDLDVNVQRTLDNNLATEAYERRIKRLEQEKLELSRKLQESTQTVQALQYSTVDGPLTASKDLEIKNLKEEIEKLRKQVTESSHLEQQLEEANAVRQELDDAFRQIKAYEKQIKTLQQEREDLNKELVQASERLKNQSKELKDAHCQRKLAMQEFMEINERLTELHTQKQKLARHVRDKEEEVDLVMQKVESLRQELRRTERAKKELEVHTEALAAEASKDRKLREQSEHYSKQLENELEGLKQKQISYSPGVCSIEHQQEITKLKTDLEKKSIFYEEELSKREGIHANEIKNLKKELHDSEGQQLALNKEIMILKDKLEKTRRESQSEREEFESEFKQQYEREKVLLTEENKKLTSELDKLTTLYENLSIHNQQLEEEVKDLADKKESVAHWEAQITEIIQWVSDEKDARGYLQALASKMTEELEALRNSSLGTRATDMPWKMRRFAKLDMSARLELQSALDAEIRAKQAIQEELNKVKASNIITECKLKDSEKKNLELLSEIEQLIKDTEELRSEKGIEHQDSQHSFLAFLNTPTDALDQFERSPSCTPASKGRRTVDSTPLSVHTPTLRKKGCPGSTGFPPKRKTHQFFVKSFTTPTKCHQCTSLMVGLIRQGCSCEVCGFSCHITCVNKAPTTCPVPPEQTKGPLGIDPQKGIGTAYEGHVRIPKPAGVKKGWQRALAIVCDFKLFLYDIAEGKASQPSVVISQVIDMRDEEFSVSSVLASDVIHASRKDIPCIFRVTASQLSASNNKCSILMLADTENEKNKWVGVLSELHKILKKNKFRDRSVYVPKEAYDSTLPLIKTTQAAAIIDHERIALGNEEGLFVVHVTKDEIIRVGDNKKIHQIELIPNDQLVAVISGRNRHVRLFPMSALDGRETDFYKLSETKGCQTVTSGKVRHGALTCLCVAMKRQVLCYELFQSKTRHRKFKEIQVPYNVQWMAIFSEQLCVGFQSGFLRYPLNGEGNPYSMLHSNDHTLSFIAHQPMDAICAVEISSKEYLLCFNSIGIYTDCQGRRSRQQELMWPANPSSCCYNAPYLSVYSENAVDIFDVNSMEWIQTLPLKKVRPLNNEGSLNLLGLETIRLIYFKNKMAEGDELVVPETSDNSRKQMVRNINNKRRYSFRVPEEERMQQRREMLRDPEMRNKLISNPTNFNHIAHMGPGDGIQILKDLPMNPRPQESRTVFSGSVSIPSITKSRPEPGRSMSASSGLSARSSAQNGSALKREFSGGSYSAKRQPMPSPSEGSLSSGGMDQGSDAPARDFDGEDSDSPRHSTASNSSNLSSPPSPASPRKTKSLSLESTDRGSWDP
Sequence of SRMS (Q9H3Y6 whole entry): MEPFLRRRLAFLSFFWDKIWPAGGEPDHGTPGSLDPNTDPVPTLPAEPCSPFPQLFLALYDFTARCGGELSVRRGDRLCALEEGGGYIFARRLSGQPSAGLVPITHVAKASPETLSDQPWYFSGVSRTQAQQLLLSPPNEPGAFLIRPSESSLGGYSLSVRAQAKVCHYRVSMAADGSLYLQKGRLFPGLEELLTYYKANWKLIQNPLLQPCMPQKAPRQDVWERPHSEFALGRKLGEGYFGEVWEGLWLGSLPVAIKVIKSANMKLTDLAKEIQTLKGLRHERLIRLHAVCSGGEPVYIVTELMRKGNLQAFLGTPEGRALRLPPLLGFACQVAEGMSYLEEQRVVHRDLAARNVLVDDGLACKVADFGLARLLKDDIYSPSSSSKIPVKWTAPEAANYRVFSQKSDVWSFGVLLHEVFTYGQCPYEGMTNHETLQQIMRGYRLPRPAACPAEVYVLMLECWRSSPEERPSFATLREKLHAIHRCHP

Compound `Cc1cn(-c2cc(NC(=O)c3ccc4c(c3)CN(c3cncnc3)C[C@@H]4C)cc(C(F)(F)F)c2)cn1` [Compound 6j] has a remaining activity at 1 µM [1] of 72%, a remaining activity at 1 µM (RIPK4) of 100% and a remaining activity at 1 µM (FLT3(ITD,F691L)) of 100%. For the same compound, the remaining activity at 1 µM (PIM3) was 94%, the remaining activity at 1 µM (TAK1) was 93% and the remaining activity at 1 µM (PIK3CA(E542K)) was 100%. It also gave a remaining activity at 1 µM (MRCKA) of 93%, a remaining activity at 1 µM (ERN1) of 100% and a remaining activity at 1 µM (EPHB4) of 76%. It also gave a remaining activity at 1 µM (CDC2L2) of 97%, a remaining activity at 1 µM (PIP5K1A) of 100% and a remaining activity at 1 µM (RIOK2) of 77%. The remaining activity at 1 µM (RET(V804L)) was 94%, the remaining activity at 1 µM (TNNI3K) was 65% and the remaining activity at 1 µM (EPHB2) was 85%. The remaining activity at 1 µM (DMPK) was 100%, the remaining activity at 1 µM (TNIK) was 86% and the remaining activity at 1 µM (MET(M1250T)) was 84%. It also gave a remaining activity at 1 µM (PCTK1) of 100%, a remaining activity at 1 µM (LYN) of 100% and a remaining activity at 1 µM (AMPK-alpha1) of 83%. For the same compound, the remaining activity at 1 µM (CDK2) was 86%, the remaining activity at 1 µM (CLK3) was 95% and the remaining activity at 1 µM (FGFR1) was 79%. The remaining activity at 1 µM (TEC) was 96%, the remaining activity at 1 µM (QSK) was 94% and the remaining activity at 1 µM (MET) was 100%. For the same compound, the remaining activity at 1 µM (SRMS) was 100%, the remaining activity at 1 µM (PIP5K2B) was 81% and the remaining activity at 1 µM [2] was 56%. The remaining activity at 1 µM (FLT3(D835Y)) was 40%, the remaining activity at 1 µM (MAP3K2) was 92% and the remaining activity at 1 µM (ACVR2A) was 98%. For the same compound, the remaining activity at 1 µM (MEK1) was 94% and the remaining activity at 1 µM (NEK4) was 98%.
